This is an account of results in patent publication US20250382273A1 (INSTITUT NATIONAL DE LA SANTE ET DE LA RECHERCHE MEDICALE, priority 2022, published 2025).

Bounds are passed on as bounds.

The test system of one assay is M. tuberculosis H37Rv_DdnL49P_gfp. In kind it is cell-based, Mycobacterium tuberculosis. The following applies: in combination with pretomanid, unit inferred; read-out: average EC50 H37Rv_DdnL49P_gfp.
Usually EC50 stands for the concentration giving half of the maximal effect. On to `COc1ccc(-c2ccc3nc(NC(=O)[C@@H]4C5C=CC(C5)[C@@H]4C(=O)O)sc3c2)cc1` (stereo partly shown) [Example 54, 3-[[6-(4-methoxyphenyl)-1,3-benzothiazol-2-yl]carbamoyl]bicyclo[2.2.1]hept-5-ene-2-carboxylic acid], for which the EC50 is 0.69 µM. The same measure, in the same setting: the result for `CCOc1ccc2nc(NC(=O)[C@@H]3C4C=CC(C4)[C@@H]3C(=O)O)sc2c1` (stereo partly shown) [Example 7, 3-[(6-ethoxy-1,3-benzothiazol-2-yl)carbamoyl]bicyclo[2.2.1]hept-5-ene-2-carboxylic acid] reads 1 µM.

Staying with this assay, now noted: read-out: EC50 H37Rv_DdnL49P_gfp.
On to `COc1ccc(-c2ccc3nc(NC(=O)[C@@H]4C5C=CC(C5)[C@@H]4C(=O)O)sc3c2)cc1` (stereo partly shown) [Example 54, 3-[[6-(4-methoxyphenyl)-1,3-benzothiazol-2-yl]carbamoyl]bicyclo[2.2.1]hept-5-ene-2-carboxylic acid], for which the EC50 was < 1 µM. As to `C#CCOc1ccc2nc(N3C(=O)[C@@H]4[C@H](C3=O)[C@@H]3C=C[C@H]4C3)sc2c1` [Example 73, (1R,2S,6R,7S)-4-(6-prop-2-ynoxy-1,3-benzothiazol-2-yl)-4-azatricyclo[5.2.1.02,6]dec-8-ene-3,5-dione], the EC50 is < 1 µM. Regarding `COC(=O)c1ccc2nc(NC(=O)[C@@H]3C4C=CC(C4)[C@@H]3C(=O)O)sc2c1` (stereo partly shown) [Example 41, 3-[(6-methoxycarbonyl-1,3-benzothiazol-2-yl)carbamoyl]bicyclo[2.2.1]hept-5-ene-2-carboxylic acid], the EC50 was in the range of 1 to 5 µM. On the same count and under the same terms, the result for `O=C(Nc1nc2ccc(Oc3ncccc3C(F)(F)F)cc2s1)[C@@H]1C2C=CC(C2)[C@@H]1C(=O)O` (stereo partly shown) [Example 25, 3-[[6-[[3-(trifluoromethyl)-2-pyridyl]oxy]-1,3-benzothiazol-2-yl]carbamoyl]bicyclo[2.2.1]hept-5-ene-2-carboxylic acid] reads 1 to 5 µM; that for `O=C(Nc1nc2ccc(-c3ccc(N4CCCCC4)cc3)cc2s1)[C@@H]1C2C=CC(C2)[C@@H]1C(=O)O` (stereo partly shown) [Example 100], < 1 µM. Still for that read-out and setting: the result for `O=C(Nc1nc2ccc(Oc3ccccc3)cc2s1)[C@@H]1C2C=CC(C2)[C@@H]1C(=O)O` (stereo partly shown) [Example 17, 3-[(6-phenoxy-1,3-benzothiazol-2-yl)carbamoyl]bicyclo[2.2.1]hept-5-ene-2-carboxylic acid] reads < 1 µM; that for `CCOc1ccc2nc(NC(=O)[C@@H]3C4C=CC(C4)[C@@H]3C(=O)O)sc2c1` (stereo partly shown) [Example 7, 3-[(6-ethoxy-1,3-benzothiazol-2-yl)carbamoyl]bicyclo[2.2.1]hept-5-ene-2-carboxylic acid], < 1 µM; that for `N#Cc1ccnc(Oc2ccc3nc(N4C(=O)[C@@H]5[C@H](C4=O)[C@@H]4C=C[C@H]5C4)sc3c2)c1` [Example 31, 2-[[2-[(1R,2S,6R,7S)-3,5-dioxo-4-azatricyclo[5.2.1.02,6]dec-8-en-4-yl]-1,3-benzothiazol-6-yl]oxy]pyridine-4-carbonitrile], 5 to 10 µM. Same read-out and setting: the result for `O=C(Nc1nc2ccc(-c3ccccc3)cc2s1)[C@@H]1C2C=CC(C2)[C@@H]1C(=O)O` (stereo partly shown) [Example 51] reads 1 to 5 µM; that for `O=C(Nc1nc2cc3c(cc2s1)OCCO3)[C@@H]1C2C=CC(C2)[C@@H]1C(=O)O` (stereo partly shown) [Example 10, 3-(6,7-dihydro-[1,4]dioxino[2,3-f][1,3]benzothiazol-2-ylcarbamoyl) bicyclo[2.2.1]hept-5-ene-2-carboxylic acid], 10 to 20 µM; that for `O=C1[C@@H]2C3C=CC(C3)[C@@H]2C(=O)N1c1nc2ccc(Nc3cccc(F)n3)cc2s1` [Example 89, 4-[6-[(6-fluoro-2-pyridyl)amino]-1,3-benzothiazol-2-yl]-4-azatricyclo[5.2.1.02,6]dec-8-ene-3,5-dione], 1 to 5 µM. Regarding `N#Cc1ccc2nc(NC(=O)[C@@H]3C4C=CC(C4)[C@@H]3C(=O)O)sc2c1` (stereo partly shown) [Example 40, 3-[(6-cyano-1,3-benzothiazol-2-yl)carbamoyl]bicyclo[2.2.1]hept-5-ene-2-carboxylic acid], the EC50 lay within 5 to 10 µM. As to `O=C1[C@@H]2C3C=CC(C3)[C@@H]2C(=O)N1c1nc2ccc(Nc3ccc(F)cn3)cc2s1` [Example 87, 4-[6-[(5-fluoro-2-pyridyl)amino]-1,3-benzothiazol-2-yl]-4-azatricyclo[5.2.1.02,6]dec-8-ene-3,5-dione], the EC50 is < 1 µM. Still for that read-out and setting: the result for `O=C1[C@@H]2[C@H](C(=O)N1c1nc3ccc(-c4ccc(O)cc4)cc3s1)[C@@H]1C=C[C@H]2C1` [Example 63, (1R,2S,6R,7S)-4-[6-(4-hydroxyphenyl)-1,3-benzothiazol-2-yl]-4-azatricyclo[5.2.1.02,6]dec-8-ene-3,5-dione] reads 5 to 10 µM; that for `O=C(Nc1nc2ccc(-c3ccccc3C(F)(F)F)cc2s1)[C@@H]1C2C=CC(C2)[C@@H]1C(=O)O` (stereo partly shown) [Example 57, 3-[6-[[2-(trifluoromethyl)phenyl]-1,3-benzothiazol-2-yl]carbamoyl]bicyclo[2.2.1]hept-5-ene-2-carboxylic acid], 10 to 20 µM.

On to `O=C(Nc1nc2ccc(F)cc2s1)[C@@H]1C2C=CC(C2)[C@@H]1C(=O)O` (stereo partly shown) [Example 42, 3-[(6-fluoro-1,3-benzothiazol-2-yl)carbamoyl]bicyclo[2.2.1]hept-5-ene-2-carboxylic acid], for which the concentration for a half-maximal effect (EC50) was 1 to 5 µM. Still for that read-out and setting: the same measure for `COc1cc2nc(NC(=O)[C@@H]3C4C=CC(C4)[C@@H]3C(=O)O)sc2cc1OC` (stereo partly shown) [Example 9, 3-[(5,6-dimethoxy-1,3-benzothiazol-2-yl)carbamoyl]bicyclo[2.2.1]hept-5-ene-2-carboxylic acid]: 5 to 10 µM. As to `O=C1[C@@H]2[C@H](C(=O)N1c1nc3ccc(Oc4ccc(C(F)(F)F)cc4)cc3s1)[C@@H]1C=C[C@H]2C1` [Example 23, (1R,2S,6R,7S)-4-[6-[4-(trifluoromethyl)phenoxy]-1,3-benzothiazol-2-yl]-4-azatricyclo[5.2.1.02,6]dec-8-ene-3,5-dione], the EC50 fell in the range of 1 to 5 µM. The same measure, in the same setting: the result for `O=C(O)C1C2C=CC(C2)[C@H]1C(=O)Nc1nc2ccc(-c3ccc(C(F)(F)F)nc3)cc2s1` (stereo partly shown) [Example 66, 3-[[6-[6-(trifluoromethyl)-3-pyridyl]-1,3-benzothiazol-2-yl]carbamoyl]bicyclo [2.2.1]hept-5-ene-2-carboxylic acid] reads 1 to 5 µM; that for `O=C(Nc1nc2ccc(Nc3ccc(F)cn3)cc2s1)[C@@H]1C2C=CC(C2)[C@@H]1C(=O)O` (stereo partly shown) [Example 86, 3-[[6-[(5-fluoro-2-pyridyl)amino]-1,3-benzothiazol-2-yl]carbamoyl]bicyclo[2.2.1]hept-5-ene-2-carboxylic acid], < 1 µM.
